Experiment [1] deals with T1, LK35.2-hPD-L1 cells / PE-labeled PD-1-Ig (Homo sapiens, UniProt Q9NZQ7).
T1 construct: expressed in transfected cells; host or cells: LK35.2 mouse B cell line
Briefly: LK35.2-hPD-L1 cell binding high-content screening assay. The conditions noted are these: cell line of CBA not given (LK35.2-hPD-L1 or 293T-hPD-L1). Type of experiment: cell-based. On the procedure: LK35.2-hPD-L1 Cell Binding High-Content Screening Assay. Phycoerythrin (PE) was covalently linked to the Ig epitope tag of human PD-1-Ig and fluorescently-labeled PD-1-Ig was used for binding studies with a mouse B cell line (LK35.2) stably over-expressing human PD-L1 (LK35.2-hPD-L1). Briefly, 3×10^3 LK35.2-hPD-L1 cells were seeded into 384 well plates in 20 ul of RPMI supplemented with 10% fetal calf serum and cultured overnight. 125 nl of compound was added to cells, followed by 5 ul of PE-labeled PD-1-Ig (1 nM final), diluted in RPMI supplemented with 10% fetal calf serum, followed by incubation at 37° C. for 1 h. […] Cells were washed 3× in 100 ul of dPBS followed by final addition of 15 ul of dPBS. Data was collected and processed using a Cell Insight NXT High Content Imager and associated software.

Another experiment concerns the target T2, Human PD-L1/PD-1 (Homo sapiens, UniProt Q9NZQ7).
T2 construct: made in house; host or cells: HEK293T
Briefly: HTRF PD-1-Ig/PD-L1-His binding assay (human PD-L1). A digest of the protocol:
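Interaction of Fc-tagged soluble PD-1 with His-tagged soluble PD-L1 is monitored by time-resolved FRET. Donor is europium cryptate anti-Ig (1 nM final) and acceptor is APC anti-His (20 nM final). Assay buffer is dPBS with 0.1% BSA and 0.05% Tween-20.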
On the technique in general: Time-resolved FRET reads energy transfer from a long-lived donor to a nearby acceptor.

Where [2] appears, read: cluster symbol, read-out: CBA IC50 cluster.
The mark [3] stands for this setting: cluster symbol, read-out: HTRF IC50 cluster.
Where [4] appears, read: CBA IC50 cluster, cluster symbol.
Setting [5] is: HTRF IC50 cluster, cluster symbol.

Where two headings read alike, the source gives them in different places. Positions of bridges follow the written chain, without caps; N, C: chain ends. Non-standard residues stand in square brackets, D forms with d. Residues, ends and D or L forms follow the SMILES beside them. *: point of attachment. Phe(3-CF3) = N[C@@H](Cc1cccc(C(F)(F)F)c1)C(=O)O; Ala(4-thiazolyl) = N[C@@H](Cc1cscn1)C(=O)O; Bip = N[C@@H](Cc1ccc(-c2ccccc2)cc1)C(=O)O; Cyclohexanecarbonyl = O=C(C1CCCCC1)*; Cyclopentanecarbonyl = O=C(C1CCCC1)*; Bta = N[C@@H](Cc1csc2ccccc12)C(=O)O; Cyclobutanecarbonyl = O=C(C1CCC1)*; NMeNle = CCCC[C@H](NC)C(=O)O; NMeA = CN[C@@H](C)C(=O)O; 2Furoyl = O=C(c1ccco1)*; Dab = NCC[C@H](N)C(=O)O; Dap = NC[C@H](N)C(=O)O; Bz = O=C(c1ccccc1)*; Sar = CNCC(=O)O

T2 sequence (Q9NZQ7 with tags, fused parts or gaps): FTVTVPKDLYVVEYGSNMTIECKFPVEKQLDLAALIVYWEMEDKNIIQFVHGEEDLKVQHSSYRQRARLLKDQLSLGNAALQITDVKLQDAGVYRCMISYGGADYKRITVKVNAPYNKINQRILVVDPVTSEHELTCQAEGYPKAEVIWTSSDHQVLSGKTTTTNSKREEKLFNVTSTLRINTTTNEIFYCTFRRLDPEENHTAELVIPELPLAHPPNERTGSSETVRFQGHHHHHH
T1 sequence (Q9NZQ7 19-290): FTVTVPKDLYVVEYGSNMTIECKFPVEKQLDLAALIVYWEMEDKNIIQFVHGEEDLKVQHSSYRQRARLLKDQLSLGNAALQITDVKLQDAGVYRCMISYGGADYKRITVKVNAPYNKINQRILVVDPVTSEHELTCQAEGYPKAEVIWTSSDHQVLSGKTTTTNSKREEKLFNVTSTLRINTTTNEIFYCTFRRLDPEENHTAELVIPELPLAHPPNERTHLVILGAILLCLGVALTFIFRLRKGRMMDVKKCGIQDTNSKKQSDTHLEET

Take `CCCC[C@H]1C(=O)N(C)[C@@H](CCCC)C(=O)N[C@@H](CCCNC(=N)N)C(=O)N[C@H](C(=O)NCC(N)=O)CSCC(=O)N[C@@H](Cc2ccccc2)C(=O)N(C)[C@@H](C)C(=O)N[C@@H](CC(N)=O)C(=O)N2CCC[C@H]2C(=O)N[C@@H](Cc2cnc[nH]2)C(=O)N[C@@H](CC(C)C)C(=O)N(C)CC(=O)N[C@@H](Cc2ccc(-c3ccccc3)cc2)C(=O)N[C@@H](CO)C(=O)N[C@@H](Cc2c[nH]c3ccccc23)C(=O)N1C` [Example 1007] ({CH2CO}-F[NMeA]NPHL[Sar][Bip]SW[NMeNle][NMeNle]RCG-NH2; thioether N-14): the results for the IC50 (in experiment [1] (setting [2]); at Human PD-L1/PD-1 (setting [3])) were > 74.3 nM and > 30.5 nM, respectively.
Turning to `CCCC[C@H]1C(=O)N(C)[C@@H](CCCC)C(=O)N[C@@H](CCCNC(=N)N)C(=O)N[C@H](C(=O)NCC(N)=O)CSCC(=O)N[C@@H](Cc2ccccc2)C(=O)N(C)[C@@H](C)C(=O)N[C@@H](CC(N)=O)C(=O)N2CCC[C@H]2C(=O)N[C@@H](Cc2cnc[nH]2)C(=O)N[C@@H](CC(C)C)C(=O)N(C)CC(=O)N[C@@H](Cc2cscn2)C(=O)N[C@@H](CO)C(=O)N[C@@H](Cc2c[nH]c3ccccc23)C(=O)N1C` [Example 1010] ({CH2CO}-F[NMeA]NPHL[Sar][Ala(4-thiazolyl)]SW[NMeNle][NMeNle]RCG-NH2; thioether N-14), the IC50 (in experiment [1] (read-out: CBA IC50 value); at Human PD-L1/PD-1 (read-out: HTRF IC50 value)) was > 10000 nM throughout.
As to `CCCC[C@H]1C(=O)N[C@@H](CCCNC(=N)N)C(=O)N[C@H](C(=O)NCC(N)=O)CSCC(=O)N[C@@H](Cc2ccccc2)C(=O)N(C)[C@@H](C)C(=O)N[C@@H](CC(N)=O)C(=O)N2CCC[C@H]2C(=O)N[C@@H](Cc2cnc[nH]2)C(=O)N[C@@H](CC(C)C)C(=O)N(C)CC(=O)N[C@@H](Cc2c[nH]c3ccccc23)C(=O)N[C@@H](CO)C(=O)N[C@@H](Cc2c[nH]c3ccccc23)C(=O)N[C@@H](CNC(=O)C2CCC2)C(=O)N1C` [Example 1011] ({CH2CO}-F[NMeA]NPHL[Sar]WSW[Dap](Cyclobutanecarbonyl)[NMeNle]RCG-NH2; thioether N-14), the IC50 in experiment [1] (setting [2]) was > 74.3 nM; at Human PD-L1/PD-1 (setting [3]), > 30.5 nM.
Consider `CCCC[C@H]1C(=O)N[C@@H](CCCNC(=N)N)C(=O)N[C@H](C(=O)NCC(N)=O)CSCC(=O)N[C@@H](Cc2ccccc2)C(=O)N(C)[C@@H](C)C(=O)N[C@@H](CC(N)=O)C(=O)N2CCC[C@H]2C(=O)N[C@@H](Cc2cnc[nH]2)C(=O)N[C@@H](CC(C)C)C(=O)N(C)CC(=O)N[C@@H](Cc2c[nH]c3ccccc23)C(=O)N[C@@H](CO)C(=O)N[C@@H](Cc2c[nH]c3ccccc23)C(=O)N[C@@H](CNC(=O)C2CCCC2)C(=O)N1C` [Example 1012] ({CH2CO}-F[NMeA]NPHL[Sar]WSW[Dap](Cyclopentanecarbonyl)[NMeNle]RCG-NH2; thioether N-14), for which the IC50 in experiment [1] (setting [2]) is > 74.3 nM; at Human PD-L1/PD-1 (setting [3]) it was > 30.5 nM.
In the case of `CCCC[C@H]1C(=O)N[C@@H](CCCNC(=N)N)C(=O)N[C@H](C(=O)NCC(N)=O)CSCC(=O)N[C@@H](Cc2ccccc2)C(=O)N(C)[C@@H](C)C(=O)N[C@@H](CC(N)=O)C(=O)N2CCC[C@H]2C(=O)N[C@@H](Cc2cnc[nH]2)C(=O)N[C@@H](CC(C)C)C(=O)N(C)CC(=O)N[C@@H](Cc2c[nH]c3ccccc23)C(=O)N[C@@H](CO)C(=O)N[C@@H](Cc2c[nH]c3ccccc23)C(=O)N[C@@H](CNC(=O)c2ccccc2)C(=O)N1C` [Example 1013] ({CH2CO}-F[NMeA]NPHL[Sar]WSW[Dap](Bz)[NMeNle]RCG-NH2; thioether N-14), the figures for the 50% inhibitory concentration (IC50) (in experiment [1] (setting [4]); on Human PD-L1/PD-1 (setting [5])) were > 74.3 nM and > 30.5 nM, respectively.
As for `CCCC[C@H]1C(=O)N(C)[C@@H](CCCC)C(=O)N[C@@H](CCCNC(=N)N)C(=O)N[C@H](C(=O)NCC(N)=O)CSCC(=O)N[C@@H](Cc2ccc(O)cc2)C(=O)N(C)[C@@H](C)C(=O)N[C@@H](CC(N)=O)C(=O)N2CCC[C@H]2C(=O)N[C@@H](Cc2cnc[nH]2)C(=O)N[C@@H](CC(C)C)C(=O)N2CCC[C@H]2C(=O)N[C@@H](Cc2c[nH]c3ccccc23)C(=O)N[C@@H](CO)C(=O)N[C@@H](Cc2csc3ccccc23)C(=O)N1C` [Example 1014] ({CH2CO}-Y[NMeA]NPHLPWS[Bta][NMeNle][NMeNle]RCG-NH2; thioether N-14), the IC50 in experiment [1] (setting [2]) was in the range of 0.158 to 4.71 nM; at Human PD-L1/PD-1 (setting [3]), 0.385 to 6.74 nM.
For `CCCC[C@H]1C(=O)N(C)[C@@H](CCCC)C(=O)N[C@@H](CCCNC(=N)N)C(=O)N[C@H](C(=O)NCC(N)=O)CSCC(=O)N[C@@H](Cc2ccccc2)C(=O)N(C)[C@@H](C)C(=O)N[C@@H](CC(N)=O)C(=O)N2CCC[C@H]2C(=O)N[C@@H](Cc2cnc[nH]2)C(=O)N[C@@H](CC(C)C)C(=O)N2CCC[C@H]2C(=O)N[C@@H](Cc2c[nH]c3ccccc23)C(=O)N[C@@H](CO)C(=O)N[C@@H](Cc2csc3ccccc23)C(=O)N1C` [Example 1015] ({CH2CO}-F[NMeA]NPHLPWS[Bta][NMeNle][NMeNle]RCG-NH2; thioether N-14) the same measures were 4.78 to 72.9 nM and 6.76 to 30.3 nM.
For `CCCC[C@H]1C(=O)N(C)[C@@H](CCCC)C(=O)N[C@@H](CCCNC(=N)N)C(=O)N[C@H](C(=O)NCC(N)=O)CSCC(=O)N[C@@H](Cc2ccc(O)cc2)C(=O)N(C)[C@@H](C)C(=O)N[C@@H](CC(N)=O)C(=O)N2CCC[C@H]2C(=O)N[C@@H](Cc2cnc[nH]2)C(=O)N[C@@H](CC(C)C)C(=O)N2CCC[C@H]2C(=O)N[C@@H](Cc2c[nH]c3ccccc23)C(=O)N[C@@H](CO)C(=O)N[C@@H](Cc2c[nH]c3ccccc23)C(=O)N1C` [Example 1016] ({CH2CO}-Y[NMeA]NPHLPWSW[NMeNle][NMeNle]RCG-NH2; thioether N-14) the same measures were 0.158 to 4.71 nM and 0.385 to 6.74 nM.
For `CCCC[C@H]1C(=O)N[C@@H](CCCNC(=N)N)C(=O)N[C@H](C(=O)NCC(N)=O)CSCC(=O)N[C@@H](Cc2ccccc2)C(=O)N(C)[C@@H](C)C(=O)N[C@@H](CC(N)=O)C(=O)N2CCC[C@H]2C(=O)N[C@@H](Cc2cnc[nH]2)C(=O)N[C@@H](CC(C)C)C(=O)N(C)CC(=O)N[C@@H](Cc2c[nH]c3ccccc23)C(=O)N[C@@H](CO)C(=O)N[C@@H](Cc2c[nH]c3ccccc23)C(=O)N[C@@H](CNC(=O)C2CCCCC2)C(=O)N1C` [Example 1017] ({CH2CO}-F[NMeA]NPHL[Sar]WSW[Dap](Cyclohexanecarbonyl)[NMeNle]RCG-NH2; thioether N-14) the same measures were > 74.3 nM and > 30.5 nM.
In the case of `CCCC[C@H]1C(=O)N(C)[C@@H](CCCC)C(=O)N[C@@H](CCCNC(=N)N)C(=O)N[C@H](C(=O)NCC(N)=O)CSCC(=O)N[C@@H](Cc2ccccc2)C(=O)N(C)[C@@H](C)C(=O)N[C@@H](CC(N)=O)C(=O)N2CCC[C@H]2C(=O)N[C@@H](Cc2cnc[nH]2)C(=O)N[C@@H](CC(C)C)C(=O)N(C)CC(=O)N[C@@H](Cc2cccc(C(F)(F)F)c2)C(=O)N[C@@H](CO)C(=O)N[C@@H](Cc2c[nH]c3ccccc23)C(=O)N1C` [Example 1018] ({CH2CO}-F[NMeA]NPHL[Sar][Phe(3-CF3)]SW[NMeNle][NMeNle]RCG-NH2; thioether N-14), the IC50 was > 74.3 nM in experiment [1] (setting [2]) and > 30.5 nM on Human PD-L1/PD-1 (setting [3]).
Turning to `CCCC[C@H]1C(=O)N(C)[C@@H](CCCC)C(=O)N[C@@H](CCCNC(=N)N)C(=O)NC(C(=O)NCC(N)=O)CSCC(=O)N[C@@H](Cc2ccccc2)C(=O)N(C)[C@@H](C)C(=O)N[C@@H](CC(N)=O)C(=O)N2CCC[C@H]2C(=O)N[C@@H](Cc2cnc[nH]2)C(=O)N[C@@H](CC(C)C)C(=O)N[C@@H](CCNC(=O)C2CCCCC2)C(=O)N[C@@H](Cc2c[nH]c3ccccc23)C(=O)N[C@@H](CO)C(=O)N[C@@H](Cc2c[nH]c3ccccc23)C(=O)N1C` (some centres unmarked) [Example 1021], the IC50 in experiment [1] (read-out: CBA IC50 value) is 262 nM; on Human PD-L1/PD-1 (read-out: HTRF IC50 value) it was 180 nM.
On to `CCCC[C@H]1C(=O)N(C)[C@@H](CCCC)C(=O)N[C@@H](CCCNC(=N)N)C(=O)N[C@H](C(=O)NCC(N)=O)CSCC(=O)N[C@@H](Cc2ccccc2)C(=O)N(C)[C@@H](C)C(=O)N[C@@H](CC(N)=O)C(=O)N2CCC[C@H]2C(=O)N[C@@H](Cc2c[nH]cn2)C(=O)N[C@@H](CC(C)C)C(=O)N[C@@H](CCNC(=O)c2ccccc2)C(=O)N[C@@H](Cc2c[nH]c3ccccc23)C(=O)N[C@@H](CO)C(=O)N[C@@H](Cc2c[nH]c3ccccc23)C(=O)N1C` [Example 1022] ({CH2CO}-F[NMeA]NPHL[Dab](Bz)WSW[NMeNle][NMeNle]RCG-NH2; thioether N-14), for which the IC50 in experiment [1] (setting [4]) was > 74.3 nM; on Human PD-L1/PD-1 (setting [5]) it was > 30.5 nM.
Take `CCCC[C@H]1C(=O)N(C)[C@@H](CCCC)C(=O)N[C@@H](CCCNC(=N)N)C(=O)N[C@H](C(=O)NCC(N)=O)CSCC(=O)N[C@@H](Cc2ccccc2)C(=O)N(C)[C@@H](C)C(=O)N[C@@H](CC(N)=O)C(=O)N2CCC[C@H]2C(=O)N[C@@H](Cc2c[nH]cn2)C(=O)N[C@@H](CC(C)C)C(=O)N[C@@H](CCNC(=O)c2ccco2)C(=O)N[C@@H](Cc2c[nH]c3ccccc23)C(=O)N[C@@H](CO)C(=O)N[C@@H](Cc2c[nH]c3ccccc23)C(=O)N1C` [Example 1023] ({CH2CO}-F[NMeA]NPHL[Dab](2Furoyl)WSW[NMeNle][NMeNle]RCG-NH2; thioether N-14): the results for the IC50 (in experiment [1] (setting [2]); on Human PD-L1/PD-1 (setting [3])) were > 74.3 nM and > 30.5 nM, respectively.

The IC50 is the concentration that gives 50% inhibition.

(Values after US9850283B2, “Macrocyclic inhibitors of the PD-1/PD-L1 and CD80(B7-1)/PD-L1 protein/protein interactions” (BRISTOL-MYERS SQUIBB COMPANY, priority 2013, dated 2017).)
